SMILES | melting point [°C]
CN1CC(=O)N2CCC[C@H]2C1=O | 133 to 135
N#CC1(Cc2ccccc2)CCN(Cc2ccccc2)CC1 | 92
Cc1c(C)c2c(c(C)c1N)C(c1ccc(C(C)C)cc1)C1(CCN(C)CC1)O2 (stereo not drawn) | 123 to 124
CC(O)c1ccc(-c2ccc(C(=O)OCc3ccccc3)cc2)cc1 (single isomer, unassigned; (+)) | 104 to 106
CCOC(=O)c1c(O)c2ccc(Cl)cc2c(=O)n1C | 109 to 110
COc1ccccc1N1CCN(CCCNC(=O)c2cccc3c(=O)c(C)c(CCc4ccccc4)oc23)CC1 | 142 to 146
O=C(O)C1(COc2ccc(Br)cc2)COC1 | 122 to 124
O=CC(=O)c1ccc2c(c1)CCC2 | 100 to 112
CCNc1ccc2ccccc2c1-c1c(P(c2ccccc2)c2ccccc2)ccc2ccccc12 | 83.1
COc1ccc(Cc2nc3cnc4cc(-c5ccccc5)ccc4c3n2CCOc2ccccc2)cc1 | 205 to 206
COC1=CC(=O)C(O)=C(CCCCCCCC(O)C(O)CCCCCCCC2=C(O)C(=O)C=C(OC)C2=O)C1=O (stereo not drawn) | 132 to 134
O=C1CCC(c2ccc(NC(=O)C3(Cl)CC3)cc2)=NN1 | 231 to 232
CCOC(=O)CC(=O)c1cc(F)c(N=[N+]=[N-])nc1Nc1ccc(F)cc1F | 130 to 131
COc1ccc2c(c1)CCC([C@@H]1CC[C@H](O)[C@@]1(C)CC(=O)O)C2 (stereo partly drawn) | 142
CN(Cc1ccccc1)Cc1nc(-c2ncn3c2CN(C)C(=O)c2cc(F)ccc2-3)no1 | 161 to 162
COc1cc(Nc2c(C#N)cnc3cc4cc(OCCn5nccn5)c(OC)cc4cc23)c(Cl)cc1Cl | 285 to 287
CN(Cc1ccccc1)C1=N/C(=C\c2c[nH]c3ncc(Cl)cc23)C(=O)N1 | 310
Cc1nc2ccccc2n1C(C)(C)CO | 180 to 181
O=C(c1cccs1)c1cnn2c(-c3cccc(-n4cccc4)c3)ccnc12 | 211 to 213
CC1(C)Oc2ccc(C3=NNC(=O)CC3)cc2NC1=O | 251 to 254
CN(C)c1cc(CC(C#N)=CNc2ccccc2)cc(N(C)C)c1C(C)(C)C | 150
Cc1ccc(Cl)c(Nc2ccccc2C(=O)N(O)Cc2ccccc2)c1Cl | 133 to 135
CCCc1ccc([C@H]2CC[C@H](O)CC2)cc1 | 78.2 to 80
CC(C)=CCCC(C)=CCCC(C)=CCCC1(C)CCc2c(C)c(O)c(C)c(C)c2O1 (stereo not drawn) | 25 to 28
O=C=NC1(N=NC2(N=C=O)CCCCC2)CCCCC1 | 38 to 40

SMILES | melting point [°C]
Clc1ccc2onc(Cn3ccnc3)c2c1 | 100 to 102
CCCCCCCCCCCCCCOC(=O)c1cc(N)cc(C(=O)OCCCCCCCCCCCCCC)c1 | 74 to 75
O=C(O)C=CC(=O)c1ccccc1O | 172 to 173
CC1=NC(C)(C)SC1=NOC(=O)N(C)C | 92 to 95
O=C(c1ccc(-c2ccccc2)cc1)c1cccnc1Cl | 128 to 132
Fc1cc(F)cc(N2c3ccccc3Sc3ccccc32)c1 | 111 to 115
CCC(O)c1ccc(-c2ccc(Cl)cc2)o1 (stereo not drawn) | 74 to 75
FC(F)(F)Oc1ccc(C=CC(C=Cc2ccc(OC(F)(F)F)cc2)=NNC2=NCCCN2)cc1 | 140 to 142
O=C(O)CCC1=C2C(=CC(Cl)=CC2(F)Cl)NC1C(=O)O (stereo not drawn) | 292 to 294
CCOC(=O)NN(C)c1ccc(-c2ccccc2)nn1 | 129 to 130
CC12CCC3C(CCC4C(O)CCCC43C)C1CCC2OC1CCCCO1 (stereo not drawn) | 167 to 170
CN(CCCc1c(N)nc(N)[nH]c1=O)c1ccc(C(=O)N[C@@H](CCC(=O)O)C(=O)O)cc1 | 190 to 200
CCOC(=O)c1c[nH]c2cc(Cl)c(F)c(NCC=O)c2c1=O | 213 to 216
Cc1c2c(c(-c3ccc(C(F)(F)F)cc3)c3c4c(ccc13)OCO4)CNC2=O | 303 to 305
COC(=O)C(=O)NS(=O)(=O)Cc1ccccc1 | 117 to 122
Cc1ccc(C(=O)C2=C(O)C(=O)N(c3ccc(C)nn3)C2c2cccc(OC(C)C)c2)cc1 (stereo not drawn) | 243 to 245
COc1ccc2nc(CBr)sc2c1 | 78 to 81
Nn1c(C2CC2)cc(-c2ccc(C(F)(F)F)cc2)cc1=O | 132
OCC1Cc2c(c(Cl)cc3c(-c4c(F)cccc4F)noc23)O1 (stereo not drawn) | 166 to 169
CC(=O)NC[C@H]1CN(c2ccc(-n3cccn3)c(F)c2)C(=O)O1 | 183 to 184
CCOCOc1cccc(C(CC#N)N2Cc3c(Cl)ccc(NC(=O)C4CC4)c3C2=O)c1 (stereo not drawn) | 200 to 202
Cc1nc(NC(=O)Nc2ccccc2)n(C)c(=O)c1CCN1CCN(c2noc3ccccc23)CC1 | 216
CCOCc1nc2c(N)nc3cc(-c4cncc(OC)c4)ccc3c2n1CC(C)(C)OCCS(C)(=O)=O | 186 to 188
O=[N+]([O-])c1ccc(Cn2c(CO)nc3ccccc32)cc1 | 162 to 165
COc1ccc(/C=N/Nc2ccccn2)cc1OC1CCCC1 | 142 to 143

SMILES | melting point [°C]
ON=C1CCc2c(cccc2OCC(O)CN2CCN(C(c3ccccc3)c3ccccc3)CC2)C1 (stereo not drawn) | 177
CN(C(=O)c1sc2cc(C(=O)O)ccc2c1S)c1ccc2sc3ccccc3c(=O)c2c1 | 210 to 212
O=Cc1cc(O)c(O)c(C=O)c1 | 192 to 195
CCOC(=O)CCC(=O)Nc1ccc(-c2c[nH]c(=O)cn2)cc1 | 250
CCSc1nc(N2CCNCC2)nc2cccnc12 | 98 to 101
CC(=O)OC[C@@H]1C=C[C@H](n2cnc3c(=O)[nH]c(N)nc32)C1 | 247 to 249
O=C(NCCCOCCCNC(=O)c1ccc(OC(F)(F)F)cc1)c1ccc(OC(F)(F)F)cc1 | 118 to 120
Cc1nc(-c2ccc(=O)n(C(C)C)n2)c(-c2ccccc2)nc1O | > 250
CCCCCCCCCCCCOc1ccc2c(c1)C(CCNC(=O)CCC)CC2 (stereo not drawn) | 68 to 69
O=[N+]([O-])c1ccccc1C(Cl)Cl | 25.6 to 26.7
Cn1c(-c2ccc(F)cc2)c(OCCOc2ccc(C=C3SC(=O)NC3=O)cc2)c(=O)c2ccccc21 | 225 to 228
O=C1N(CCCl)CCN1C1CCCCC1 | 60 to 64
O=c1[nH]c(CO)nc2nc(O)cnc12 | > 300
CCOC(=O)CC1(CC)OCCc2c1[nH]c1ccccc21 (stereo not drawn) | < 80
COc1ccc2cc(CC(=O)OCC(C)=O)ccc2c1 | 122 to 124
Cc1nc(-c2ccc3c(=O)n(CC(C)C)c(CNC(=O)OC(C)(C)C)c(-c4ccccc4)c3c2)sc1C(=O)O | 184 to 186
O=[N+]([O-])c1cccc(C2=NOCCS2)c1 | 114 to 115
CN(C)CCCOc1ccc2ccc(N)nc2n1 | 88
COc1cccc2c1nc(C(F)F)n2-c1nc(N2CCOCC2)cc(N2C[C@@H](C)O[C@@H](C)C2)n1 | 132 to 134
CCOC(=O)CCCCCc1oc(=O)[nH]c1-c1ccc(Cl)cc1 | 113 to 114
CCOC(=O)C(=O)C(NC(=O)c1ccccc1)c1ccccc1 (stereo not drawn) | 80 to 83
CC(C)(CCCCC(=O)CCCCC1(C(=O)O)CCC1)C(=O)O | 53 to 55
c1cc(CN2CCCCC2)cc(OCCCNc2nc3ccccc3[nH]2)c1 | 146 to 148

— a melting point compilation (Tetko et al.; mined from patent text by program, amines drawn as free bases though some values may be those of a salt)
